Tests used:
[1] = tested on: Lx1322 non-NE SCLC PDX from chemorelapsed tumor; experiment: In vivo treatment, tumor growth of chemorelapsed SCLC PDX Lx1322; settings: Lx1322 PDX in NSG mice; day 14; irinotecan 50 mg/kg i.p. WQ, Selinexor 10 mg/kg p.o. QDx3
Experimental: (§1) For treatments, 5-10 NOD.Cg-Prkd^scid Il2rg^tm1Wjl/SzJ (NSG) mice were engrafted per treatment arm and incubated until they reached 100-150 mm^3. At that point, mice were randomized into groups and treated with either vehicle, Cisplatin (2 mg/kg i.p. once/week), Etoposide (3 mg/kg i.p. QD×3), Selinexor (10 mg/kg p.o. QD×3), irinotecan (50 mg/kg i.p. WQ), or the combinations of cisplatin+etoposide, cisplatin+Selinexor, cisplatin+etoposide+Selinexor or irinotecan+Selinexor, at the previously mentioned doses. Mice weights and tumor volumes were measured twice a week and mice were sacrificed when tumors reached humane endpoint. All animal experiments were approved by the Memorial Sloan Kettering Cancer Center (MSKCC) Animal Care and Use Committee.

[2] = tested on: Lx304B ASCL1^high SCLC PDX from chemorelapsed tumor; experiment: In vivo treatment, tumor growth of chemorelapsed SCLC PDX Lx304B; settings: Lx304B PDX in NSG mice; day 24; irinotecan 50 mg/kg i.p. WQ, Selinexor 10 mg/kg p.o. QDx3
Experimental: as §1

[3] = tested on: AKT/mTOR pathway in H69 and H82 cell lines; experiment: Western blot of AKT/mTOR pathway activation; type: cell-based; parameters: concentration or dose not given beside the values; settings: selinexor or combinations for 7 days
Experimental: FIGS. 9A-9G show impairment of chemotherapy-induced AKT/mTOR overactivation may contribute to selinexor efficacy in combination with chemotherapy. […] Synergy plots, showing the occurrence of synergy, addition, or antagonism (green), were calculated with the HSA method using the SynergyFinder web application (2.0).
(§2) Protein extraction and western blot were performed as previously described in Gardner, E. E. et al., Cancer Cell 31: 286-299 (2017), which is incorporated by reference in its entirety herein. Antibodies for pγH2AX (#39117, Active Motif, Carlsbad, CA), pATR (#53217, Cell Signaling Technology, Danvers, MA, Danvers, MA), ATR (#13934, Cell Signaling Technology, Danvers, MA, Danvers, MA), pATM (#31068, Cell Signaling Technology, Danvers, MA, Danvers, MA), ATM (#2873, Cell Signaling Technology, Danvers, MA, Danvers, MA), pChk2 (#12298, Cell Signaling Technology, Danvers, MA, Danvers, MA), Chk2 (#2662, Cell Signaling Technology, Danvers, MA, Danvers, MA), MSH2 (#2017, Cell Signaling Technology, Danvers, MA, Danvers, MA), MLH1 (#3515, Cell Signaling Technology, Danvers, MA, Danvers, MA), XPO1 (#46249, Cell Signaling Technology, Danvers, MA, Danvers, MA), and actin (#3700, Cell Signaling Technology, Danvers, MA, Danvers, MA). Quantifications were performed with the Image Studio software (Version 3.1, LI-COR Biosciences, Lincoln, NE). Immunohistochemistry for Exportin-1 was performed with the Exportin-1 antibody #611833 from BD in TMAs including resected tumor samples form SCLC and NSCLC patients. All study subjects had provided signed informed consent for biospecimen analyses under an Institutional Review Board-approved protocol.

[4] = tested on: Lx108-R ASCL1^high cisplatin/etoposide-resistant SCLC PDX; experiment: In vivo treatment, tumor growth of cisplatin/etoposide-resistant SCLC PDX Lx108-R; parameters: species or system mice; settings: right after chemotherapy relapse in vivo
Experimental: as §1

[5] = tested on: H82 cells; experiment: Propidium iodide / annexin V apoptosis assay by flow cytometry; type: cell-based; settings: GI20 concentrations, 3 days
Experimental: Parental cells were treated with cisplatin (GI20), Selinexor (GI20) or their combination for 3 days. Alternatively, control and XPO1 CRISPR-KO cells were treated with cisplatin […] for 3 days. Then, cells were collected and stained with the APC Annexin V Apoptosis Detection Kit with PI (#640932, Biolegend, San Diego, CA) and apoptosis was analyzed by flow cytometry as previously described in Shrestha, C. L. et al., PLoS One 12: 1-17 (2017).

[6] = tested on: Lx33 NEUROD1^high chemonaive SCLC PDX; experiment: In vivo treatment, tumor growth of chemonaive SCLC PDX Lx33; settings: Lx33 PDX in NSG mice; day 17; cisplatin 2 mg/kg i.p. once/week, etoposide 3 mg/kg i.p. QDx3, Selinexor 10 mg/kg p.o. QDx3
Experimental: as §1

[7] = tested on: DNA damage response pathways in H82 cells; experiment: Western blot of DNA damage sensing and repair proteins; type: cell-based
Experimental: as §2

[8] = tested on: Lx304 ASCL1^high chemonaive SCLC PDX; experiment: In vivo treatment, tumor growth of chemonaive SCLC PDX Lx304; settings: Lx304 PDX in NSG mice; day 14; cisplatin 2 mg/kg i.p. once/week, etoposide 3 mg/kg i.p. QDx3, Selinexor 10 mg/kg p.o. QDx3
Experimental: as §1

[9] = tested on: XPO1-KO (sgXPO1) cells; experiment: Selinexor specificity assay: viability of XPO1-expressing and XPO1-KO isogenic cells; type: cell-based; settings: XPO1-KO isogenic cell line; viability normalized to untreated
Text: HSA synergy scores for H69 Cisplatin+Selinexor and H69 Cisplatin+KPT-185 are 6.55 and 8.52, respectively. HSA synergy scores for H82 Cisplatin+Selinexor and H82 Cisplatin+KPT-185 are 12.29 and 10.68, respectively. […] The sequence of the sgXPO1 is AACCTGAACGAAATGCCTG (SEQ ID NO: 16). […] Two tailed Student's t-test was used to assess statistical significance of the differential expression between groups. p-values legend: * p<0.05, ** p<0.01, *** p<0.001.

| SMILES | T/C percentage values at control arm endpoint [1] [%] | T/C percentage values at control arm endpoint [2] [%] | phosphorylation of mTOR, AKT and PRAS40 / AKT/mTOR pathway activation (Western blot) [3] | T/C percentage at experiment endpoint [4] [%] | apoptosis (propidium iodide/annexin V) [5] | T/C percentage values at control arm endpoint [6] [%] | reduction in the expression of MSH2 and MLH1 (Western blot) ([7]; Selinexor treatment) | T/C percentage values at control group endpoint [8] [%] | cell viability after Selinexor treatment in the XPO1-KO cell line [9] | activation of ATR and ATM (Western blot) ([7]; cisplatin treatment) |
| --- | --- | --- | --- | --- | --- | --- | --- | --- | --- | --- |
| CCc1c2c(nc3ccc(OC(=O)N4CCC(N5CCCCC5)CC4)cc13)-c1cc3c(c(=O)n1C2)COC(=O)[C@]3(O)CC [irinotecan] | 18.09 | 23.82 | induced | 75.27 |  |  |  |  |  |  |
| O=C(/C=C\n1cnc(-c2cc(C(F)(F)F)cc(C(F)(F)F)c2)n1)NNc1cnccn1 [Selinexor] |  |  | suppressed |  | increased apoptosis | 40.99 | not observed | 38.52 | no effect in viability |  |
| COc1cc([C@@H]2c3cc4c(cc3[C@@H](O[C@@H]3O[C@@H]5CO[C@@H](C)O[C@H]5[C@H](O)[C@H]3O)[C@H]3COC(=O)[C@H]23)OCO4)cc(OC)c1O [etoposide] |  |  |  |  |  | 63.14 |  | 54.59 |  |  |
| N.N.[Cl][Pt][Cl] [cisplatin] |  |  | Increased phosphorylation |  |  | 79.73 |  | 67.04 |  | activated |
